Experimental findings from patent US8044029B2, “Sulfatides for treatment of autoimmune disorders” (Torrey Pines Institute for Molecular Studies, priority 2005, dated 2011) are described below.

SMILES strings stand for the structures.

The test system of this test is chronic-relapsing EAE in SJL/J mice. Nature of the test: Chronic-relapsing EAE, PLP139-151-immunized SJL/J mice. It is filed as in vivo, mouse. The conditions noted are these: 20 μg intraperitoneally at the onset of EAE, FIG. 3. Here is the method:
Wild type, SJL/J female mice, 6-8 week of age were immunized once subcutaneously with 75 μg of proteolipid protein peptide PLP139-151 emulsified in incomplete Freund's adjuvant (Difco, Detroit, Mich., USA) supplemented with attenuated M. tuberculosis (DIFCO) to 2 mg/ml. Mice were observed daily for signs of EAE for 50 days. The average disease score for each group was calculated by averaging the maximum severity of all of the affected animals in the group. Disease severity was scored on a 5-point scale, as described earlier: 1, flaccid tail; 2, hind limb weakness; 3, hind limb paralysis; 4, whole body paralysis; 5, moribund or death.
In the treatment protocol, 20 μg of bovine brain sulfatide in 200 μl of PBS or vehicle was given intraperitoneally at the onset of EAE and 2 weeks later. […]
Wild type, SJL/J female mice, 6-8 wk of age were immunized once subcutaneously with 75 μg of PLP139-151 peptide emulsified in IFA (DIFCO) supplemented with attenuated M. tuberculosis (DIFCO) to 2 mg/ml. […] The average disease score for each group was calculated by averaging the maximum severity of all of the affected animals in the group. Disease severity was scored on a 5-point scale, as described earlier: 1, flaccid tail; 2, hind limb weakness; 3, hind limb paralysis; 4, whole body paralysis; 5, moribund or death. […]

For the compound `CCCCCCCC/C=C\CCCCCCCCCCCCCC(=O)N[C@@H](CO[C@@H]1O[C@H](CO)[C@H](O)[C@H](OS(=O)(=O)O)[C@H]1O)[C@H](O)/C=C/CCCCCCCCCCCCC` [cis-tetracosenoyl sulfatide, (2S, 3R, 4E)-N-nervonic-1-[-D-(3-sulfate)-galactopyranosyl]-2-amino-octadecene-3-ol], the “effect on ongoing chronic-relapsing EAE (disease score, 5-point scale)” value is listed as “reverses ongoing chronic-relapsing EAE”.
